Among the data in PubChem BioAssay AID2060504 (Molecular Pharmacology Branch, DTP, NCI, 2025) are viability, T/C and IC50 values, retold here.

Values joined by “and” are separate entries in the source; they are usually repeats but may differ in a detail not shown here. Equal entries are not always repeated.

The test system of this experiment is 636577-100-R-J1-PDC complex spheroid viability. Kind of experiment: Anticancer human tumor 636577-100-R-J1-PDC patient-derived endometrial adenocarcinoma cell line growth inhibition [GQUAD]. The note with it: for viability, T/C: stronger effect = lower value. From the text:
DNA G-quadruplex Stabilizer Agents in Combinations in Complex Spheroids
A high-throughput screen of multi-cell type tumor spheroids was designed to identify active combinations of DNA G-quadruplex stabilizer agents and targeted small molecules. Complex spheroids include a stromal component modeled by human endothelial cells (HUVEC) and fibroblasts modeled by human mesenchymal stem cells (MSCs). The concentration ranges selected for each drug and investigational agent were based upon clinically achievable concentrations if the clinical Cmax of the agent was known.
Compounds. The drugs and investigational agents: pidnarulex (CX-5461; NSC782164), APTO-253 (NSC789042), BRACO-19 (NSC847499), peposertib (NSC802822), ceralasertib (NSC780249), elimusertib (NSC800525), camonsertib (NSC841442), AZD-1390 (NSC803789), olaparib (NSC753686), talazoparib (NSC767125), ART-558 (NSC835418), sotorasib (NSC818433), MRTX-1133 (NSC836407), SN-38 (NSC673596), topotecan (NSC609699), etoposide (NSC141540), doxorubicin (NSC123127), gemcitabine (NSC613327), 5-fluorouracil (NSC19893), paclitaxel (NSC125973), vemurafenib (NSC761431), panobinostat (NSC761190), R-306465 (JNJ-16241199; NSC773264), adavosertib (NSC754352), TP-3654 (NSC805149), carboplatin (NSC241240), KSQ-4279 (NSC840948), and staurosporine (NSC755774) were obtained from the National Cancer Institute (NCI) Developmental Therapeutics Program Chemical Repository (34). The FDA-approved anticancer drug set is available from the NCI Developmental Therapeutics Program. […] The stock solutions were prepared in dimethyl sulfoxide (DMSO, Sigma-Aldrich, St. Louis, MO, cat. D2650) at 800-fold the tested concentration and stored at -70 degrees C prior to their use. All drugs and investigational agents were tested over a range starting from a high concentration at or near the clinical Cmax and decreasing in half-log increments. If the clinical Cmax for an agent had not been determined, the highest concentration tested was 10 microM.
2.3 Cell Culture. All cells were maintained in an incubator at 37 degrees C and 5% CO2 with 95% humidity. The PDC lines were cultured according to standard operating procedures established by the NCI PDMR. All PDCs were thawed and cultured in Matrigel-coated flasks prepared with a working solution of 1X Ham's F-12 nutrient mix, without supplementation (Invitrogen, cat. 11765054), 100 U/mL penicillin-streptomycin (Invitrogen, cat. 15140122), and 2.5% Matrigel (Corning Inc., cat. 354248) for the first three passages. The 857933-349-R-J2-PDC line was cultured in 6C/Colon 1B media, which includes advanced DMEM/F-12 (Thermo Fisher Scientific, cat. 12634028), 10 mM HEPES (Thermo Fisher Scientific, cat. 15630080), 1X GlutaMAX supplement (Thermo Fisher Scientific, cat. 35050061), 0.1 mg/mL primocin (InvivoGen, cat. ant-pm-2), 10% defined fetal bovine serum, heat inactivated (HyClone Laboratories Inc., cat. SH30070.03HI), 50% L-WRN conditioned media (ATCC, cat. CRL-3276), 1.25 mM N-Acetyl-L-cysteine (Sigma-Aldrich, cat. A9165), 10 mM nicotinamide (Sigma-Aldrich, cat. N0636), 1X B-27 supplement (Thermo Fisher Scientific, cat. 17504044), 1X N-2 supplement (Thermo Fisher Scientific, cat. 17502048), 10 microM Y-27632 dihydrochloride (Tocris Bioscience, cat. 1254), and 50 ng/mL human EGF recombinant protein (Thermo Fisher Scientific, cat. PHG0311). The 485176-168-R4-J1-PDC line was cultured in Panc media, which includes all 6C/Colon 1B media components plus 100 ng/mL human FGF-10 (Thermo Fisher Scientific, cat. 100-26), 500 nM SB-431542 (Selleckchem, cat. S1067), and gastrin (Tocris, cat. 3006).
[…]
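Note: viability read after seven days of drug exposure.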
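Throughout, for viability, T/C: luminescence signal used as a proxy for viable cells; 100% = DMSO vehicle control wells.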

As for `Nc1ccn(C2OC(CO)C(O)C2(F)F)c(=O)n1` (stereo not drawn), the viability, T/C (in general, the result in the treated group divided by that in the control group, in per cent) (compound 0.0316 µM) was 15% and 15.2%; the viability, T/C (compound 0.1 µM) is 14.2% and 11.3%; the viability, T/C (compound 0.316 µM) was 17.7% and 13.5%; the viability, T/C (compound 1 µM) is 16.3% and 13.1%; the viability, T/C (compound 3.16 µM) was 13.8% and 14.3%; the viability, T/C (compound 10 µM) is 14.2% and 11%. Also, the IC50 – broadly, the point on the concentration scale where inhibition reaches its midpoint – (curve of compound) was under 31.6 nM.

Turning to `COc1ncnc(C2CC2)c1-c1ncc2cnn(Cc3ccc(-c4nc(C(F)(F)F)cn4C(C)C)cc3)c2n1`, the viability, T/C (compound 0.0316 µM) is 72.1% and 66.5% and 79.3%; the viability, T/C (compound 0.1 µM) was 70% and 60.2% and 82.1%; the viability, T/C (compound 0.316 µM) is 54.8% and 66.5% and 102%; the viability, T/C (compound 1 µM) is 72.7% and 57.8% and 88.1%; the viability, T/C (compound 3.16 µM) was 64.7% and 64.6% and 68%; the viability, T/C (compound 10 µM) is 59.5% and 68.5% and 65.4%. Moreover, the IC50 (curve of compound) is over 10000 nM.

For `Cc1cccc(N(C)C(=O)C2C(O)CCN2c2nc(C)cc(C(F)(F)F)c2C#N)c1` (stereo not drawn), the viability, T/C is 55.9% and 99.9% and 91.4% (compound 0.0316 µM); 87% and 96.7% and 33.3% (compound 0.1 µM); 95.6% and 94.5% and 96% (compound 0.316 µM); 75.2% and 81.8% and 94.4% (compound 1 µM); 76% and 84.7% and 55.7% (compound 3.16 µM); 74.4% and 87.5% and 49.5% (compound 10 µM). Besides, for the setting “curve of compound”, the IC50 was > 10000 nM and 9350 nM.

Take `CC1COCCN1c1cc(C2(O)CC3CCC(C2)O3)c2cnn(-c3ccn[nH]3)c2n1` (stereo not drawn) + Cc1cnc(CNC(=O)c2c(=O)c3ccc(N4CCCN(C)CC4)nc3n3c2sc2ccccc23)cn1: the IC50 runs as follows: (curve of first compound, second compound 0.0316 µM) under 31.6 nM; (curve of first compound, second compound 0.1 µM) under 31.6 nM; (curve of first compound, second compound 0.316 µM) under 31.6 nM; (curve of first compound, second compound 1 µM) under 31.6 nM; (curve of first compound, second compound 3.16 µM) under 31.6 nM; (curve of first compound, second compound 10 µM) under 31.6 nM. The viability, T/C (second compound 0.0316 µM, first compound 0.0316 µM) was 28.1%; the viability, T/C (second compound 0.0316 µM, first compound 0.1 µM) is 18.8%; the viability, T/C (second compound 0.0316 µM, first compound 0.316 µM) was 14.3%; the viability, T/C (second compound 0.0316 µM, first compound 1 µM) is 6.98%; the viability, T/C (second compound 0.0316 µM, first compound 3.16 µM) was 2.58%; the viability, T/C (second compound 0.0316 µM, first compound 10 µM) is 1.35%. Moreover, the viability, T/C reads like this: (second compound 0.1 µM, first compound 0.0316 µM) 21%; (second compound 0.1 µM, first compound 0.1 µM) 17.8%; (second compound 0.1 µM, first compound 0.316 µM) 15.2%; (second compound 0.1 µM, first compound 1 µM) 6.8%; (second compound 0.1 µM, first compound 3.16 µM) 3.54%; (second compound 0.1 µM, first compound 10 µM) 1.24%. The viability, T/C reads like this: (second compound 0.316 µM, first compound 0.0316 µM) 17.7%; (second compound 0.316 µM, first compound 0.1 µM) 16.3%; (second compound 0.316 µM, first compound 0.316 µM) 13.8%; (second compound 0.316 µM, first compound 1 µM) 7.53%; (second compound 0.316 µM, first compound 3.16 µM) 3.12%; (second compound 0.316 µM, first compound 10 µM) 1.5%. Besides, the viability, T/C runs as follows: (second compound 1 µM, first compound 0.0316 µM) 15%; (second compound 1 µM, first compound 0.1 µM) 14.2%; (second compound 1 µM, first compound 0.316 µM) 11.4%; (second compound 1 µM, first compound 1 µM) 6.81%; (second compound 1 µM, first compound 3.16 µM) 3.62%; (second compound 1 µM, first compound 10 µM) 1.25%. The viability, T/C was 16.1% (second compound 3.16 µM, first compound 0.0316 µM); 16.7% (second compound 3.16 µM, first compound 0.1 µM); 13.5% (second compound 3.16 µM, first compound 0.316 µM); 8.88% (second compound 3.16 µM, first compound 1 µM); 3.75% (second compound 3.16 µM, first compound 3.16 µM); 1.52% (second compound 3.16 µM, first compound 10 µM). Also, the viability, T/C is 15.6% (second compound 10 µM, first compound 0.0316 µM); 15.8% (second compound 10 µM, first compound 0.1 µM); 14% (second compound 10 µM, first compound 0.316 µM); 6.65% (second compound 10 µM, first compound 1 µM); 2.67% (second compound 10 µM, first compound 3.16 µM); 0.14% (second compound 10 µM, first compound 10 µM).
